In paper PMC5933782, “Molecular structures of cdc2-like kinases in complex with a new inhibitor chemotype” (PLoS ONE, 2018):

Tests used:
[1] = molecular target: DYRK1B (Homo sapiens, UniProt Q9Y463); assay: radiometric protein kinase assay; type: biochemical; conditions: 15 μmol/L ATP; read-out: IC50 DYRK 1B
[2] = test system: UACC-257; assay: NCI cancer cell line screening; type: cell-based, human
Procedure: Being the most promising compound in terms of CLK1 inhibitory potency and selectivity, KuWal151 (8c) was tested in the National Cancer Institute cancer cell line screening on 57 tumor cell lines of different tissue origin [45]. With only a few exceptions, KuWal151 inhibited the growth of most cell lines in submicromolar concentrations. In Table 2 the cancer cell line inhibition data is listed with the expression rates of SPF45 and CLK1 as indicated in the Expression Atlas database (https://www.ebi.ac.uk/gxa/home). Apparently the cell lines with high levels of CLK1 encoding RNA are inhibited over average. […] However, the available data are not sufficient to construe a clear relationship between the expression levels of the putative target CLK1 and sensitivity of the cell lines against 8c. The same holds true for SPF45, an important substrate of CLK1 involved in splicing which is found to be overexpressed in many cancer cell lines. […] The lack of a straight relationship between CLK1 and/or SPF45 expression levels on the one hand and sensitivity against the CLK1 inhibitor 8c on the other hand may have various reasons, e.g. different uptake rates of the inhibitor by the cells or alternative intracellular targets. […]

[3] = molecular target: CLK3 (Mus musculus, UniProt O35492); assay: radiometric protein kinase assay
[4] = test system: MOLT-4; assay: NCI cancer cell line screening; type: cell-based; conditions: Homo sapiens; MOLT-4, Leukemia
Procedure: (§1) Being the most promising compound in terms of CLK1 inhibitory potency and selectivity, KuWal151 (8c) was tested in the National Cancer Institute cancer cell line screening on 57 tumor cell lines of different tissue origin [45]. With only a few exceptions, KuWal151 inhibited the growth of most cell lines in submicromolar concentrations. In Table 2 the cancer cell line inhibition data is listed with the expression rates of SPF45 and CLK1 as indicated in the Expression Atlas database (https://www.ebi.ac.uk/gxa/home). Apparently the cell lines with high levels of CLK1 encoding RNA are inhibited over average. […] However, the available data are not sufficient to construe a clear relationship between the expression levels of the putative target CLK1 and sensitivity of the cell lines against 8c. The same holds true for SPF45, an important substrate of CLK1 involved in splicing which is found to be overexpressed in many cancer cell lines. […] The lack of a straight relationship between CLK1 and/or SPF45 expression levels on the one hand and sensitivity against the CLK1 inhibitor 8c on the other hand may have various reasons, e.g. different uptake rates of the inhibitor by the cells or alternative intracellular targets. For verification of the results from the NCI screening, which is based on the in situ fixation of cells followed by staining with the protein-binding dye sulforhodamin B [47, 48], 8c was also tested on two cell lines of the NCI panel (HT-29 and MDA-MB-231) in a crystal violet assay.

[5] = test system: T-47D; assay: NCI cancer cell line screening; type: cell-based; conditions: Homo sapiens, T47D, Breast Cancer
Procedure: as §1

[6] = test system: LOX IMVI; assay: NCI cancer cell line screening; type: cell-based; conditions: Homo sapiens, Melanoma
Procedure: as §1

[7] = test system: TK-10; assay: NCI cancer cell line screening; type: cell-based; conditions: Homo sapiens; TK-10, Renal Cancer
Procedure: as §1

[8] = test system: EKVX; assay: NCI cancer cell line screening; type: cell-based; conditions: Homo sapiens, Non-Small Cell Lung Cancer
Procedure: as §1

[9] = test system: SF-295; assay: NCI cancer cell line screening; type: cell-based; conditions: Homo sapiens; SF-295, CNS Cancer
Procedure: as §1

[10] = test system: A498; assay: NCI cancer cell line screening; type: cell-based; conditions: Homo sapiens; A498, Renal Cancer
Procedure: as §1

[11] = test system: SN12C; assay: NCI cancer cell line screening; type: cell-based; conditions: Homo sapiens, Renal Cancer
Procedure: as §1

[12] = test system: HOP-92; assay: NCI cancer cell line screening; type: cell-based; conditions: Homo sapiens; HOP-92, Non-Small Cell Lung Cancer
Procedure: as §1

[13] = test system: OVCAR-5; assay: NCI cancer cell line screening; type: cell-based; conditions: Homo sapiens; OVCAR-5, Ovarian Cancer
Procedure: as §1

[14] = test system: SF-539; assay: NCI cancer cell line screening; type: cell-based; conditions: Homo sapiens; SF-539, CNS Cancer
Procedure: as §1

[15] = test system: NCI-H226; assay: NCI cancer cell line screening; type: cell-based; conditions: Homo sapiens; NCI-H226, Non-Small Cell Lung Cancer
Procedure: as §1

[16] = test system: HS 578T; assay: NCI cancer cell line screening; type: cell-based; conditions: Homo sapiens, Breast Cancer
Procedure: as §1

[17] = test system: A549/ATCC; assay: NCI cancer cell line screening; type: cell-based; conditions: Homo sapiens, Non-Small Cell Lung Cancer
Procedure: as §1

[18] = test system: UO-31; assay: NCI cancer cell line screening; type: cell-based; conditions: Homo sapiens; UO-31, Renal Cancer
Procedure: as §1

[19] = test system: SNB-19; assay: NCI cancer cell line screening; type: cell-based; conditions: Homo sapiens; SNB-19, CNS Cancer
Procedure: as §1

[20] = test system: OVCAR-8; assay: NCI cancer cell line screening; type: cell-based; conditions: Homo sapiens; OVCAR-8, Ovarian Cancer
Procedure: as §1

[21] = test system: HL-60(TB); assay: NCI cancer cell line screening; type: cell-based; conditions: Homo sapiens, Leukemia
Procedure: as §1

[22] = test system: OVCAR-3; assay: NCI cancer cell line screening; type: cell-based; conditions: Homo sapiens; OVCAR-3, Ovarian Cancer
Procedure: as §1

[23] = test system: SNB-75; assay: NCI cancer cell line screening; type: cell-based; conditions: Homo sapiens; SNB-75, CNS Cancer
Procedure: as §1

[24] = test system: NCI-H460; assay: NCI cancer cell line screening; type: cell-based; conditions: Homo sapiens; NCI-H460, Non-Small Cell Lung Cancer
Procedure: as §1

[25] = test system: RPMI-8226; assay: NCI cancer cell line screening; type: cell-based; conditions: Homo sapiens; RPMI-8226, Leukemia
Procedure: as §1

[26] = test system: SK-MEL-28; assay: NCI cancer cell line screening; type: cell-based; conditions: Homo sapiens; SK-MEL-28, Melanoma
Procedure: as §1

[27] = test system: CCRF-CEM; assay: NCI cancer cell line screening; type: cell-based; conditions: Homo sapiens, Leukemia
Procedure: as §1

[28] = test system: HCT-116; assay: NCI cancer cell line screening; type: cell-based; conditions: Homo sapiens; HCT-116, Colon Cancer
Procedure: as §1

[29] = test system: UACC-62; assay: NCI cancer cell line screening; type: cell-based; conditions: Homo sapiens; UACC-62, Melanoma
Procedure: as §1

[30] = test system: NCI-H522; assay: NCI cancer cell line screening; type: cell-based; conditions: Homo sapiens; NCI-H522, Non-Small Cell Lung Cancer
Procedure: as §1

[31] = test system: MCF7; assay: NCI cancer cell line screening; type: cell-based; conditions: Homo sapiens; MCF7, Breast Cancer
Procedure: as §1

[32] = test system: K-562; assay: NCI cancer cell line screening; type: cell-based; conditions: Homo sapiens, K562; K-562, Leukemia
Procedure: as §1

[33] = test system: SW-620; assay: NCI cancer cell line screening; type: cell-based; conditions: Homo sapiens; SW-620, Colon Cancer
Procedure: as §1

[34] = test system: SF-268; assay: NCI cancer cell line screening; type: cell-based; conditions: Homo sapiens; SF-268, CNS Cancer
Procedure: as §1

[35] = test system: SR; assay: NCI cancer cell line screening; type: cell-based; conditions: Homo sapiens, Leukemia
Procedure: as §1

[36] = molecular target: T1, CDK2/cyclin A (Homo sapiens, UniProt P24941); assay: radiometric protein kinase assay; type: biochemical; conditions: 15 μmol/L ATP; read-out: IC50 CDK2/cyclinA
T1 construct: made in house

Sequence of DYRK1B (Q9Y463 whole entry): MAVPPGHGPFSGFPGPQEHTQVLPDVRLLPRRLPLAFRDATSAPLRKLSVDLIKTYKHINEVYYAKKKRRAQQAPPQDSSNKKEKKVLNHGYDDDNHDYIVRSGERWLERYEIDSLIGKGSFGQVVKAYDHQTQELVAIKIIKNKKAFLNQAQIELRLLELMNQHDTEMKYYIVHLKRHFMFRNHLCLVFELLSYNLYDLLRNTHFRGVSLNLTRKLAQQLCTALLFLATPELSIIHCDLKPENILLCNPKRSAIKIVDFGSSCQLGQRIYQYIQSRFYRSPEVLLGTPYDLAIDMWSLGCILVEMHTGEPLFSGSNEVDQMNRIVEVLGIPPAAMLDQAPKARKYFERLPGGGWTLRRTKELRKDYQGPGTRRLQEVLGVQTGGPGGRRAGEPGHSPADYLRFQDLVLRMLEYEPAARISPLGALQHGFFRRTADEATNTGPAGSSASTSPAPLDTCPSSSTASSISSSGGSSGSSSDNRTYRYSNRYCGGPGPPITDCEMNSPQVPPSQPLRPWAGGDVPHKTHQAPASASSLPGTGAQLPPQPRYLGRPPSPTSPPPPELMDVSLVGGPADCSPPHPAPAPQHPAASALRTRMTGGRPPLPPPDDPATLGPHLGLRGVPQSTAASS
Sequence of CLK3 (O35492 whole entry): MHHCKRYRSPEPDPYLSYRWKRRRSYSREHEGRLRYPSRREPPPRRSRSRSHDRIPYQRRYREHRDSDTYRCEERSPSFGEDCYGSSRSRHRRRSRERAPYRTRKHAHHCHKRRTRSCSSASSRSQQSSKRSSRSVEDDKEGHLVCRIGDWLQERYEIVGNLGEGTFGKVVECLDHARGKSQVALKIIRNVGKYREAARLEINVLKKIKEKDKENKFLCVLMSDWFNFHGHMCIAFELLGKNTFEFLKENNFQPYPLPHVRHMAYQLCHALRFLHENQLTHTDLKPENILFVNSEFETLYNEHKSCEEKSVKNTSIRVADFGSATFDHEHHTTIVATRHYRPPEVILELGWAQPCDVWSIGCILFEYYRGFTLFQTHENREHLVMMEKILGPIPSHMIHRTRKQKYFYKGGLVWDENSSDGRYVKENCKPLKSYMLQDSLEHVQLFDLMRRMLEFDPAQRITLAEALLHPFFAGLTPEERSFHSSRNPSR

SMILES: O=C1NCc2ccc3c(-c4cccc(Cl)c4)c[nH]c3c21 [8c, 3-(3-Chlorophenyl)-6,7-dihydropyrrolo[3,4-g]indol-8(1H)-one]
- IC50 [1]: > 10 µM
- GI50 ([2]; Homo sapiens, UACC-257, UACC-257, Melanoma): > 50 µM
- GI50 ([2]; UACC-257, Melanoma): > 50.1 µM
- IC50 [3]: > 10 µM
- GI50 [4]: 0.257 µM
- GI50 [5]: 0.309 µM
- GI50 [6]: 0.245 µM
- GI50 [7]: 10.2 µM
- GI50 [8]: 0.355 µM
- GI50 [9]: 0.224 µM
- GI50 [10]: 0.166 µM
- GI50 [11]: 0.331 µM
- GI50 [12]: 5.62 µM
- GI50 [13]: 1.25 µM
- GI50 [14]: 0.166 µM
- GI50 [15]: 28.8 µM
- GI50 [16]: 0.204 µM
- GI50 [17]: 0.389 µM
- GI50 [18]: 0.832 µM
- GI50 [19]: 0.389 µM
- GI50 [20]: 0.724 µM
- GI50 [21]: 0.141 µM
- GI50 [22]: 0.191 µM
- GI50 [23]: 0.151 µM
- GI50 [24]: 0.209 µM
- GI50 [25]: 0.288 µM
- GI50 [26]: 0.692 µM
- GI50 [27]: 0.178 µM
- GI50 [28]: 0.191 µM
- GI50 [29]: 0.275 µM
- GI50 [30]: 0.158 µM
- GI50 [31]: 0.174 µM
- GI50 [32]: 0.162 µM
- GI50 [33]: 0.209 µM
- GI50 [34]: 0.437 µM
- GI50 [35]: 0.151 µM
- IC50 [36]: > 10 µM
